We go through two compounds from EP4806900A2, “RAS INHIBITORS” (Revolution Medicines, Inc., priority 2019, dated 2021).

The structures appear in SMILES notation.

For one test, the system named is SW1573. The following applies: Canon et al., Nature 575:217-223 (2019); cited from earlier work.
The next test relates to NSCLC (KRAS G12C) model. The test is described as follows: NSCLC (KRAS G12C) xenograft model, combinations. The test is classed as in vivo, mice.
Test [1] relates to NCI-H358 KRASG12C xenograft. Description: In vivo NSCLC K-Ras G12C xenograft model (tumor growth). Set-up: species or system BALB/c nude mice. As to conditions: single agents: Compound B 50 mg/kg intravenous twice weekly; cobimetinib […] daily oral.

In the case of `C=CC(=O)N1CCN(c2nc(=O)n(-c3c(C)ccnc3C(C)C)c3nc(-c4c(O)cccc4F)c(F)cc23)[C@@H](C)C1` [AMG510], the “sensitivity of cell line” value with SW1573 is reported as “insensitive”.
As for `O=C(c1ccc(F)c(F)c1Nc1ccc(I)cc1F)N1CC(O)([C@@H]2CCCCN2)C1` [cobimetinib], the “tumor response, single agent (FIG. 3A)” value with NSCLC (KRAS G12C) model (Compound B 50 mg/kg intermittent intravenous or cobimetinib […] daily oral, alone) was “tumor growth inhibition”. In addition, in the test on NSCLC (KRAS G12C) model (each single agent), the “tumor regressions at end of study, single agent group (FIG. 3B)” value is given as “no tumor regressions”. Besides, in test [1], the “effect on tumor growth” value is “tumor growth inhibition” and the “mice with tumor regression (greater than 10% reduction of tumor volume at end of study)” value is reported as “no tumor regressions”.
